The results in this text go back to ChEMBL document CHEMBL1201862, “PubChem BioAssay data set” (2004).

Test systems include RXF 393; NCI-H226; U-251; DU-145; OVCAR-3; SNB-19; HCC 2998; HOP-92; A549; SW-620; M14; K562; NCI-H522; EKVX; HOP-62; SN12C; SK-MEL-28; MOLT-4; SF-268; COLO 205.
Experiment in all cases: NCI anticancer screen, dose series, 48 h

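Five compound concentrations were applied to cells in 96-well plates for 48 hours; endpoints were derived by simple linear interpolation of the resulting dose-response curve. Here, GI50 denotes the concentration required for 50% inhibition of growth.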 The source made the active and inactive calls. Cut-off read from the data, not from the text of the source: active = GI50 up to about 1.1 µM and inactive = higher. Some results are limits rather than exact numbers.

Regarding `NCCSCc1ccccc1Cl`, the GI50 in the experiment with RXF 393 is 83.8 µM (inactive); in the experiment with NCI-H226, > 100 µM (inactive); in the experiment on U-251 it was 31.6 µM (inactive); in the experiment on DU-145 it was 43 µM (inactive); in the experiment on OVCAR-3, 28.9 µM (inactive); with SNB-19, 80.4 µM (inactive). The GI50 with HCC 2998 was 18.6 µM (inactive); with HOP-92, 68.2 µM (inactive); in the experiment on A549 it was > 100 µM (inactive); in the experiment with SW-620, 33.4 µM (inactive); in the experiment on M14, 63.4 µM (inactive); with K562, 26.9 µM (inactive). Further, the GI50 with NCI-H522 is 48.2 µM (inactive); in the experiment with EKVX it was 34.3 µM (inactive); in the experiment on HOP-62 it was 40.6 µM (inactive); in the experiment on SN12C it was 43.4 µM (inactive); in the experiment on SK-MEL-28, 64.6 µM (inactive); in the experiment on MOLT-4, 31 µM (inactive). The GI50 in the experiment with SF-268 is 95.7 µM (inactive).

As for `COc1ccc2cc(-c3ccc(OC)c(OC)c3)c(=O)oc2c1`, the GI50 in the experiment with RXF 393 was 21.4 µM (inactive); in the experiment on NCI-H226, > 100 µM (inactive); with U-251 it was 57.4 µM (inactive); in the experiment on DU-145, > 100 µM (inactive); in the experiment with OVCAR-3 it was > 100 µM (inactive); with SNB-19, 40 µM (inactive). For the same molecule, the GI50 with HCC 2998, with HOP-92, in the experiment on COLO 205, in the experiment on A549, in the experiment with SW-620 and in the experiment on M14 was > 100 µM (inactive) in each case. In addition, the GI50 was > 100 µM (inactive) with K562; > 100 µM (inactive) in the experiment on NCI-H522; > 100 µM (inactive) with EKVX; 69.5 µM (inactive) with HOP-62; > 100 µM (inactive) in the experiment with SN12C; > 100 µM (inactive) in the experiment on SK-MEL-28. Also, the values for the GI50 in the experiment with MOLT-4 and with SF-268 were > 100 µM (inactive) and 62.1 µM (inactive), respectively.

`NCCCNC1(c2cc3ccccc3s2)CCCCC1`: the GI50 was 4.17 µM (inactive) with RXF 393; 17.1 µM (inactive) with NCI-H226; 2.93 µM (inactive) in the experiment on U-251; 12 µM (inactive) in the experiment with DU-145; 7.19 µM (inactive) in the experiment on OVCAR-3; 8.77 µM (inactive) in the experiment with SNB-19. The GI50 in the experiment with HCC 2998 is 1.55 µM (inactive); in the experiment with HOP-92 it was 11.6 µM (inactive); in the experiment with COLO 205, 1.84 µM (inactive); in the experiment with A549 it was 7.1 µM (inactive); in the experiment on SW-620, 4.55 µM (inactive); in the experiment on M14, 1.8 µM (inactive). Moreover, the GI50 was 1.85 µM (inactive) in the experiment on K562; 3.21 µM (inactive) with NCI-H522; 8.65 µM (inactive) in the experiment on EKVX; 10.7 µM (inactive) in the experiment with HOP-62; 10.5 µM (inactive) in the experiment with SN12C; 2.12 µM (inactive) with SK-MEL-28. Besides, the GI50 in the experiment on MOLT-4 is 3.29 µM (inactive); in the experiment with SF-268, 9.93 µM (inactive).

With `CC1(C)OC(CCO)CN1C(=O)OCc1ccccc1` (centres undefined), the GI50 in the experiment on RXF 393, in the experiment on NCI-H226, with U-251, in the experiment with DU-145, with OVCAR-3 and in the experiment on SNB-19 was > 100 µM (inactive) each time. For the same molecule, the GI50 in the experiment with HCC 2998, with HOP-92, in the experiment with COLO 205, in the experiment with A549, in the experiment with SW-620 and in the experiment with M14 was > 100 µM (inactive) each time. The GI50 was > 100 µM (inactive) in the experiment on K562; 74.6 µM (inactive) with NCI-H522; > 100 µM (inactive) in the experiment on EKVX; > 100 µM (inactive) in the experiment with SN12C; > 100 µM (inactive) in the experiment with SK-MEL-28; > 100 µM (inactive) with MOLT-4.

With `CCOC(=O)C1(C(=O)OCC)[C@H](c2ccccc2)C2=NO[C@@H]3CCC[C@H]1[C@H]23`, the GI50 in the experiment with RXF 393 was 52.1 µM (inactive); with NCI-H226, 32.9 µM (inactive); in the experiment on U-251, 49.9 µM (inactive); in the experiment with DU-145 it was > 100 µM (inactive); in the experiment on OVCAR-3, 25.1 µM (inactive); in the experiment with SNB-19 it was > 100 µM (inactive). Further, the GI50 in the experiment with HCC 2998 was 22.1 µM (inactive); in the experiment on HOP-92, 54 µM (inactive); with COLO 205, 33 µM (inactive); in the experiment with A549 it was 55.6 µM (inactive); in the experiment with SW-620 it was 58.1 µM (inactive); with M14 it was 36 µM (inactive). Besides, the GI50 in the experiment with K562 was 21.3 µM (inactive); in the experiment on NCI-H522, 42.9 µM (inactive); in the experiment with EKVX it was 27.9 µM (inactive); in the experiment on HOP-62, 20.5 µM (inactive); in the experiment on SN12C, > 100 µM (inactive); with SK-MEL-28 it was > 100 µM (inactive). The GI50 in the experiment with MOLT-4 was 15.4 µM (inactive); in the experiment with SF-268, > 100 µM (inactive).

Turning to `CCC(=O)NC(Nc1cc(C)on1)(C(F)(F)F)C(F)(F)F`, the GI50 in the experiment with RXF 393, in the experiment on NCI-H226, in the experiment with U-251, with DU-145, in the experiment with OVCAR-3 and in the experiment on SNB-19 was > 100 µM (inactive) in each case. Further, the GI50 with HCC 2998, in the experiment on HOP-92, in the experiment with A549, in the experiment on SW-620, with M14 and in the experiment with K562 was > 100 µM (inactive) throughout. Further, the GI50 in the experiment on NCI-H522, in the experiment with EKVX, in the experiment on HOP-62, with SN12C, with SK-MEL-28 and with MOLT-4 was > 100 µM (inactive) in each case. Moreover, the GI50 in the experiment on SF-268 was > 100 µM (inactive).

As for `O=C1c2ccccc2C2=Cc3ccccc3C(O)N12` (centres undefined), the GI50 in the experiment with RXF 393 is 26.2 µM (inactive); with NCI-H226 it was > 100 µM (inactive); with U-251 it was > 100 µM (inactive); in the experiment on DU-145, > 100 µM (inactive); in the experiment with OVCAR-3, > 100 µM (inactive); in the experiment with SNB-19, > 100 µM (inactive). Also, the GI50 is > 100 µM (inactive) in the experiment with HCC 2998; 41.3 µM (inactive) in the experiment with HOP-92; > 100 µM (inactive) with COLO 205; > 100 µM (inactive) in the experiment on A549; > 100 µM (inactive) with SW-620; > 100 µM (inactive) in the experiment with M14. Also, the GI50 is 36.1 µM (inactive) in the experiment on K562; 21.7 µM (inactive) in the experiment with NCI-H522; > 100 µM (inactive) in the experiment on EKVX; > 100 µM (inactive) with HOP-62; > 100 µM (inactive) with SN12C; 37.1 µM (inactive) in the experiment on SK-MEL-28. Further, the GI50 with MOLT-4 is 34 µM (inactive); in the experiment with SF-268, > 100 µM (inactive).

Regarding `CCN1C(=O)/C(=C2\SC(c3ccccc3)(c3ccccc3)c3ccccc32)SC1=S`, the GI50 in the experiment with RXF 393 is > 100 µM (inactive); in the experiment with NCI-H226, > 100 µM (inactive); in the experiment with U-251, 44.7 µM (inactive); in the experiment with DU-145, > 100 µM (inactive); in the experiment with OVCAR-3, 51.9 µM (inactive); in the experiment on SNB-19, 10.1 µM (inactive). In addition, the GI50 was > 100 µM (inactive) in the experiment on HCC 2998; 30.5 µM (inactive) with HOP-92; 64.4 µM (inactive) with COLO 205; 87.9 µM (inactive) in the experiment with A549; 93.1 µM (inactive) in the experiment with M14; > 100 µM (inactive) with K562. Moreover, the GI50 is > 100 µM (inactive) with NCI-H522; 75.9 µM (inactive) in the experiment with EKVX; 27.5 µM (inactive) in the experiment on HOP-62; > 100 µM (inactive) in the experiment on SN12C; 94.2 µM (inactive) in the experiment on SK-MEL-28; 96.4 µM (inactive) with MOLT-4. For the same molecule, the GI50 with SF-268 was 36.3 µM (inactive).

As for `COC(=O)c1c(O)ccc2[nH]c3c(O)c4ccccc4cc3c12`, the GI50 with RXF 393 is 31.3 µM (inactive); in the experiment on NCI-H226, 65.8 µM (inactive); in the experiment on U-251, 36.5 µM (inactive); in the experiment on DU-145 it was 20 µM (inactive); with OVCAR-3, 15.9 µM (inactive); in the experiment on SNB-19, 41.7 µM (inactive). The GI50 in the experiment on HCC 2998 is 13.9 µM (inactive); with HOP-92, 29.6 µM (inactive); with COLO 205, 18.3 µM (inactive); in the experiment on A549, 32.2 µM (inactive); with M14, 30.2 µM (inactive); with K562 it was 47 µM (inactive). Further, the GI50 with NCI-H522 is 32 µM (inactive); in the experiment on EKVX, 16.8 µM (inactive); with HOP-62, 22.4 µM (inactive); in the experiment with SN12C, 43.6 µM (inactive); in the experiment on SK-MEL-28, 35 µM (inactive); in the experiment on MOLT-4, 37.2 µM (inactive). In addition, in the experiment with SF-268, the GI50 was 21.9 µM (inactive).

Turning to `C1COCCN1.S=C(S)N1CCOCC1`, the GI50 with RXF 393 was 2.43 µM (inactive); with NCI-H226, > 100 µM (inactive); in the experiment on U-251 it was 4.98 µM (inactive); with DU-145, > 100 µM (inactive); in the experiment with OVCAR-3, 2.68 µM (inactive); with SNB-19, > 100 µM (inactive). For the same molecule, the GI50 is 2.59 µM (inactive) with HCC 2998; 30 µM (inactive) with HOP-92; 0.661 µM (active) in the experiment on COLO 205; 8.24 µM (inactive) in the experiment on A549; 2.55 µM (inactive) with SW-620; 12.8 µM (inactive) in the experiment on M14. For the same molecule, the GI50 was 1.46 µM (inactive) in the experiment on K562; 0.973 µM (active) with NCI-H522; > 100 µM (inactive) in the experiment on EKVX; 92.3 µM (inactive) in the experiment with HOP-62; > 100 µM (inactive) in the experiment on SN12C; 10.3 µM (inactive) with SK-MEL-28. The GI50 with MOLT-4 was 1.47 µM (inactive); in the experiment with SF-268, 9.68 µM (inactive).
